Several values for one entry are separate records, joined by “and”; a condition that tells them apart may be missing. Equal entries are not always repeated. Where two headings read alike, the source gives them in different places.
Legend:
cyanobacteria [1] = assay type: cell-based
cyanobacteria [2] = assay type: cell-based; remark: listed apart in the source

Compound: O=S(=O)([O-])[O-].O=S(=O)([O-])[O-].O=S(=O)([O-])[O-].[Al+3].[Al+3] [Al2(SO4)3, reference compound]
- Microcystin concentration determined by the assay (cyanobacteria [1]; 100 ppm): 0.45 ppb

Compound: O=S(=O)([O-])[O-].[Cu+2] [CuSO4, copper sulfate]
- Microcystin concentration determined by the assay (cyanobacteria [1]; 10 ppm): 2.40 ppb
- Microcystin concentration determined by the assay (cyanobacteria [1]; 100 ppm): 2.31 ppb
- Microcystin concentration determined by the assay (cyanobacteria [1]; 1000 ppm): 7.25 ppb and 5.17 ppb
- Microcystin concentration determined by the assay (cyanobacteria [1]; 1000 ppm for 10 min): 4.28 ppb
- Microcystin concentration determined by the assay (cyanobacteria [1]; 1000 ppm for 20 min): 4.96 ppb
- Microcystin concentration determined by the assay (cyanobacteria [1]; 1000 ppm for 30 min): 5.64 ppb
- Microcystin concentration determined by the assay (cyanobacteria [1]; 5000 ppm): 4.79 ppb

Compound: CCCCCCCCCCCCOS(=O)(=O)[O-].[Na+] [SDS, reference compound]
- Microcystin concentration determined by the assay (cyanobacteria [1]; 0.1%): 14.13 ppb

Compound: O=[N+]([O-])[O-].[Ag+] [Silver nitrate]
- effectiveness as a lytic agent (cyanobacteria [2]): as effective as silver sulfate as a lytic agent

Compound: Triton X-100 [reference compound]
- Microcystin concentration determined by the assay (cyanobacteria [1]): 2.92 ppb and 2.52 ppb and 2.55 ppb
